The record followed here is PubChem BioAssay AID179 (DTP/NCI, 2004).

The source made the active and inactive calls.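 Rule for the calls: active = compounds giving half or more protection of infected cells from virus-caused growth loss, again on retest; inactive = the rest.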 Where a SMILES comes first, the peptide text is derived from it. [ ]: non-standard residue; d: D form. The star is where a group is joined. ξ: configuration not given here. pGlu = O=C1CC[CH](C(=O)O)N1; Bz = O=C(c1ccccc1)*; Bn = c1ccc(C*)cc1; ξC = NC(CS)C(=O)O

This assay has as its system CEM cells HIV-1 protection, formazan growth assay. As to the kind of experiment: NCI AIDS Antiviral Assay. The following applies: for IC50: measured here: growth of uninfected CEM cells. Summed up:
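Soluble formazan readout of cell growth; CEM cells ± HIV-1; 5 drug concs. ≥50% protection → retest; ≥50% again = moderately active; reproducible 100% = confirmed active.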

The EC50 is the midpoint of the concentration-response curve. By IC50 is commonly meant the concentration that gives 50% inhibition. Read a low IC50 as greater potency in that assay. As for `Cc1cc(N)c(C)c2c1[nH]c1ccc(O)cc12`, the EC50 is above 302 µM and the IC50 came to 28.8 µM.
The like results for `[O]=[Sb]([OH])([OH])[c]1ccc(O)cc1` were, in that order, above 200 µM and 33.9 µM.
Regarding `O=C(c1ccc(Cl)cc1)N(C(=S)N1CCN(c2ccccc2)CC1)C1CCCCC1`, the EC50 is above 6.17 µM and the IC50 is above 6.17 µM.
`O=C(Nc1cc([N+](=O)[O-])cc([N+](=O)[O-])c1)OC1C2CCC1C1OC1C2` (stereo not given): the EC50 was above 14.8 µM and the IC50 is above 14.8 µM.
On to `c1cnc2nc3n(c2c1)CSC3`, for which the EC50 is above 380 µM and the IC50 was determined as 355 µM.
The like results for `C/C(=N\NC(=O)c1ccncc1)c1cccc(/C(C)=N/NC(=O)c2ccncc2)n1.O=S(=O)([O-])[O-].[Fe+2]` were, in that order, above 200 µM and 16.2 µM.
The like results for `CNc1ccc(C=C2C=CC=C2)cc1` were, in that order, above 74.1 µM and 39.8 µM.
For the compound `O=C1CCCc2cc3c(cc21)CC1(Cc2ccccc2C1)C3`, the EC50 is above 200 µM and the IC50 turned out to be 1.29 µM.
The like results for `C#CCOCn1cnc2ncnc(N)c21` were, in that order, above 1230 µM and above 1230 µM.
Taken in the same sequence, the figures for `COc1cc2c(c3c1[C@H](O)[C@H](C)[C@@H](C)O3)C=CC(C)(C)O2` were above 200 µM and 81.3 µM.
Taken in the same sequence, the figures for `O=C1CN(c2ccccc2)C(=O)CN1NCNN1CC(=O)N(c2ccccc2)CC1=O` were above 200 µM and above 200 µM.
Regarding `CCCCCCCCCCCC(=O)OCC1OC(n2cc(F)c(=O)[nH]c2=O)C(NC(=O)OCc2ccccc2)C(OC(=O)CCCCCCCCCCC)C1O` (stereo not given), the EC50 was above 6.61 µM and the IC50 is above 6.61 µM.
Turning to `CN1CC(=O)N(C)c2nc[nH]c2C1=O`, the outcome was inactive.
On to `CC(NC(=O)C(Cc1cnc[nH]1)NC(=O)C1CCC(=O)N1)C(N)=O` (stereo not drawn) ([pGlu]-His-Ala-NH2; configuration not given here), for which the EC50 is above 200 µM and the IC50 is above 200 µM.
As to `O=c1c2cc([N+](=O)[O-])ccc2oc2ccc([N+](=O)[O-])cc12`, the EC50 is above 13.2 µM and the IC50 is above 13.2 µM.
In the case of `O=C1SC(c2ccccc2)(c2ccccc2)c2cscc21`, the EC50 is above 61.7 µM and the IC50 is above 61.7 µM.
On to `O=[N+]([O-])/C(C(Cl)=C(Cl)Cl)=C(/Nc1ccccc1)SCc1ccccc1`, for which the EC50 is above 200 µM and the IC50 stood at 38 µM.
The like results for `COc1ccc2c(c1)c(OC)c(CC(O)C(C)(C)O)c(=O)n2C` (stereo not given) were, in that order, above 200 µM and above 200 µM.
Turning to `c1ccc(NC[Si]23OCCN(CCO2)CCO3)cc1`, the outcome was inactive.
Consider `CN(/N=C/c1ccnc2ccccc12)c1ccc(Cl)cc1[N+](=O)[O-]`, for which the EC50 was above 100 µM and the IC50 came to 12.3 µM.
Taken in the same sequence, the figures for `O=[N+]([O-])c1ccc(NC(c2ccccc2)P(=O)(Oc2ccccc2)Oc2ccccc2)cc1` (stereo not given) were above 5.89 µM and above 5.89 µM.
The like results for `COc1cccc(CCNc2c(C#N)c3n(c4ccccc4[n+]3C)c3ncccc23)c1` were, in that order, above 200 µM and 1 µM.
The like results for `O=C1/C(=C/c2ccc([N+](=O)[O-])cc2)C(=O)N(c2ccccc2)C1c1ccccc1` (stereo not given) were, in that order, above 74.1 µM and 41.7 µM.
`CCOC(=O)C(NC(=O)CC)(Nc1ccc(S(=O)(=O)Nc2nc(C)cc(C)n2)cc1)C(F)(F)F` (stereo not given): the EC50 is above 200 µM and the 50% inhibitory concentration (IC50) is above 200 µM.
As to `COc1ccc2cc1Oc1ccc(cc1)CC1c3cc(c(OC)cc3CCN1C)Oc1c(OC)c(OC)c(OC)c3c1[C@H](C2)N(C)CC3` (stereo not given in full), the outcome was inactive.
On to `COc1ccc(C(Cc2ccccc2)C2NC(=S)NC2=O)cc1` (stereo not given), for which the EC50 was above 200 µM and the IC50 worked out at 58.9 µM.
For the compound `Cc1cc([N+](=O)[O-])c(C)c2c1[nH]c1ccc(Cl)cc12`, the EC50 is above 10 µM and the IC50 was above 10 µM.
As to `COc1cc(C(c2c(O)c3ccccc3oc2=O)N2CCCC2)cc(OC)c1OC` (stereo not given), the EC50 was above 200 µM and the IC50 came out at 107 µM.
The like results for `O=C(O)Cc1cccc2c(=O)c3ccccc3oc12` were, in that order, above 200 µM and above 200 µM.
On to `CCCNC(C#N)c1ccc(C(C#N)NCCC)cc1` (stereo not given), for which the EC50 is above 200 µM and the IC50 was 38.9 µM.
As for `COc1cc(-c2cc(OC)c(OC)c3ccc(Br)cc23)c2cc(Br)ccc2c1OC`, the EC50 was above 200 µM and the IC50 was 102 µM.
The like results for `O=[N+]([O-])c1nccn1CCCN=c1c2ccccc2n(O)c2ccccc12` were, in that order, above 200 µM and 46.8 µM.
Taken in the same sequence, the figures for `O=C(Cc1ccccc1C(=O)O)c1ccccc1` were above 200 µM and above 200 µM.
Taken in the same sequence, the figures for `O=C(/C=C/c1ccc(O)c(O)c1)CC(=O)/C=C/c1ccc(O)c(O)c1` were above 200 µM and 10.2 µM.
With `CCOC(Cc1c(N)[nH]c(=S)[nH]c1=O)OCC`, the EC50 was above 200 µM and the IC50 is above 200 µM.
Take `CCOC(=O)c1cc2c(C(=O)c3ccc([N+](=O)[O-])cc3)c(C(C)=O)ccc2[nH]1`: the EC50 is above 200 µM and the IC50 is 174 µM.
As to `CCCCCCCCCCCCC(=O)CCCCC(=O)O`, the result was inactive.
On to `O=C1c2sc(-c3ccc(F)cc3)cc2-n2cccc21`, for which the EC50 was above 200 µM and the IC50 was 120 µM.
Taken in the same sequence, the figures for `COc1ccc(/C=C/C(=O)c2c(-c3ccccc3)nn(C)c(=O)c2N2CC2C)cc1` (stereo not given) were above 64.6 µM and 22.4 µM.
Taken in the same sequence, the figures for `Cc1cc2c(cc1C)Nc1oc3ccc4ccccc4c3c(=O)c1C=N2` were above 200 µM and above 200 µM.
For the compound `CC(=O)C(CN(C)Cc1ccccc1)C(c1ccccc1)c1c(O)c2ccccc2oc1=O` (stereo not given), the EC50 was above 38.9 µM and the IC50 is above 38.9 µM.
On to `O=C(/C=C/c1ccc(OCc2cccc(Cl)c2)cc1)NO`, for which the EC50 was above 200 µM and the IC50 was 25.7 µM.
The like results for `COc1ccc2ccc3[nH]c4c(C)cnc(NCCCN(C)C)c4c3c2c1` were, in that order, above 2 µM and 0.331 µM.
Taken in the same sequence, the figures for `CC(=O)Oc1ccc(-c2cc3ccccc3oc2=O)cc1OC(C)=O` were above 200 µM and 8.32 µM.
Take `Nn1c(-c2ccccc2)nc2ccc(Br)cc2c1=O`: the outcome was inactive.
As to `O=C(NCCO)c1c(CN(CCO)CCO)n([O-])c2ccccc2[n+]1=O`, the EC50 was above 490 µM and the IC50 was found to be 457 µM.
The like results for `C=CCCCC1(C)CCCCNC1=O` (stereo not given) were, in that order, 186 µM and above 200 µM.
Taken in the same sequence, the figures for `NC(=O)CNC(=O)[C@@H]1CC(OCCC(=O)O)CN1C(=O)C1CCCN1C(=O)OCc1ccccc1` (stereo not given in full) were above 200 µM and above 200 µM.
For `Cc1cc(Cl)ccc1NC(=O)C(=O)C(C(=O)c1ccccc1)C1OC(=O)c2ccccc21` (stereo not given), the EC50 is above 562 µM and the IC50 was determined as 302 µM.
The like results for `COc1ccc(C[C@H]2COC(=O)[C@@H]2Cc2cc(OC)c(O)c(OC)c2)cc1OC` were, in that order, above 200 µM and 39.8 µM.
As for `CCCC/C=C(/CCCNCCc1ccccc1)[Si](C)(C)C`, the EC50 is above 81.3 µM and the IC50 was above 81.3 µM.
Take `CC(C)(C)OC(=O)NCC(O)CNC(=O)OC(C)(C)C`: the EC50 was above 871 µM and the IC50 is above 871 µM.
For `CCN(CC)CCC(=O)c1ccc(Sc2ccc(F)cc2)cc1`, the result was inactive.
As to `CC(C)N(C(=O)C12C3C4C5(C(=O)O)C(C1C35I)C42C(=O)O)C(C)C` (stereo not given), the EC50 is above 562 µM and the IC50 is above 562 µM.
As to `COc1cc(C(=O)NCCS(=O)(=O)O)cc(OC)c1OC`, the EC50 was above 724 µM and the IC50 stood at 631 µM.
As to `O=C(O)c1nc2ccc(Cl)cc2[nH]c1=O`, the result was inactive.
For the compound `COc1ccc(C2CC(=O)Oc3ccccc3O2)cc1` (stereo not given), the EC50 was 102 µM and the IC50 is 151 µM.
For the compound `O=[N+]([O-])c1ccccc1N=Nc1c(O)[nH]c2ccc(S(=O)(=O)O)cc12`, the EC50 was above 200 µM and the IC50 was above 200 µM.
For `O=C(CNC(=O)c1ccccc1)NC(CSCc1ccccc1)C(=O)O` (stereo not given) (Bz-Gly-[ξC](Bn)-OH), the EC50 was above 676 µM and the IC50 was 550 µM.
Take `O=C(O)/C=C\CCCCC(=O)O`: the EC50 was above 1450 µM and the IC50 was above 1450 µM.
On to `CCCCCCCCN(/N=C/c1c2c(O)c3c(O)c(C)c4c(c3c1O)C(=O)C(C)(O/C=C/C(OC)C(C)C(OC(C)=O)C(C)C(O)C(C)C(O)C(C)/C=C/C=C(C)C(=O)N2)O4)C1OC(COC(=O)c2ccccc2)C(OC(=O)c2ccccc2)C1OC(=O)c1ccccc1` (stereo not given), for which the EC50 was above 200 µM and the IC50 worked out at 10.5 µM.
As to `O=C(NC1CCN(Cc2ccccc2)CC1)c1ccc(I)cc1`, the EC50 was above 200 µM and the IC50 is 15.8 µM.
For the compound `NC(=O)CC[C@@H]1NC[C@H](C(O)C(O)C(O)CO)OC1=O` (stereo not given in full), the EC50 is above 851 µM and the IC50 is above 851 µM.
Regarding `CCN(CC)CCNC(=O)c1ccc(C)c(OCc2ccccc2)c1[N+](=O)[O-]`, the EC50 was above 200 µM and the IC50 is 33.9 µM.
Taken in the same sequence, the figures for `O=Cc1cccc(/C=N/Nc2nnc(N/N=C/c3cccc(C=O)c3)c3ccccc23)c1` were above 200 µM and 28.8 µM.
The like results for `C=C(Br)CNCC(=C)Br` were, in that order, above 200 µM and 129 µM.
Taken in the same sequence, the figures for `CC1=NNC(=O)C1C1(C(=O)O)CC(c2c[nH]c3ccccc23)=NC(=S)N1` (stereo not given) were above 100 µM and 69.2 µM.
Take `CCOP(=O)(OCC)C(NC(=O)C(C(F)(F)F)C(F)(F)F)c1ccccc1` (stereo not given): the EC50 is above 200 µM and the IC50 worked out at 24.5 µM.
Taken in the same sequence, the figures for `N#CC(C(=O)/C(=N/N)C(C#N)c1ccccc1)c1ccccc1` (stereo not given) were above 309 µM and above 309 µM.
With `C[C@H]1Oc2c3c(c4c(c2C(=O)[C@@H]1C)OCC=C4)OCC=C3`, the EC50 was above 200 µM and the IC50 stood at 89.1 µM.
Taken in the same sequence, the figures for `C/C=C/C=C\C=C/C(O)CC(OP(=O)(O)O)C(C)(O)/C=C/C1CC=CC(=O)O1` (stereo not given) were above 575 µM and 33.1 µM.
